Reference: patent US20220016092A1, “METHODS FOR TREATING SYMPTOMS AND DISORDERS ASSOCIATED WITH LYSOSOMAL STORAGE DISEASES” (GENZYME CORPORATION, priority 2019, published 2022)
“And” between values parts separate entries of the source, which are not always exact repeats. Identical values can stand only once. Like-named read-outs stand apart in the source and are kept apart here.

What was measured:
Type in all cases: in vivo, human
[1] = system: glucosylceramide (GL-1) and glucosylsphingosine (lyso-GL1) in CSF and plasma; test: Clinical study in GD-3 patients: GL-1 and lyso-GL-1 in CSF and plasma; settings: 15 mg/day + imiglucerase; for GL-1 in CSF, percent change from baseline, Mean (n = 4) / Lyso-GL1 in CSF, percent change from baseline, Mean (n = 4): excludes Patient 5
Protocol: During the study patients were evaluated for safety and tolerability, CSF and plasma biomarkers (glucosylceramide, GL-1; glucosylsphingosine, lyso-GL1), pharmacokinetics, markers for systemic disease (spleen and liver volume measured by magnetic resonance imaging (MRI), platelet count, hemoglobin levels), indicia of interstitial lung disease (high resolution pulmonary computed tomography (CT)), and horizontal saccadic eye movement.
At baseline, the mean (±SD) GL-1 concentration in CSF was 7.1±2.8 ng/mL (range 4.4-11.1 ng/mL), while the mean (±SD) lyso-GL-1 concentration in CSF was 39.3±22.9 pg/mL (range 20.1-67.6 pg/mL). For comparison, the healthy GL-1 concentration in CSF is 4.5-5.9 ng/mL, and the healthy level of lyso-GL-1 in CSF is less than 5.0 pg/mL. […]

[2] = Study 1 Part 1: ascending single-dose pharmacokinetics in healthy volunteers; settings: healthy men; for Tmax: male, human, plasma, read-out: tmax, median
Excerpt: Study 1 was a 2-part single-center trial in healthy adult male volunteers.
Part 1 of the study enrolled and randomized 55 healthy men (placebo, n=14; 2-, 5-, 15, 25-, 50, and 100-mg doses, n=6 each; 150-mg dose, n=5). Eight healthy men participated in Part 2. […]

[3] = system: plasma GL-1, GL-3, and GM3; test: Study 2: pharmacodynamics in healthy volunteers; settings: healthy adults; all dose groups (5, 10, 20 mg)
Protocol: The study enrolled and randomized 36 healthy adults (19 men and 17 women) (n=9 each to group).
Pharmacodynamic endpoints (plasma GL-1, GL-3, and GM3 concentrations) were assessed on Days 1-5, 8, 11, 13, and 14, at 0 hours […]; and on Day 15, at 24 hours after the Day 14 dose.

[4] = 4 weeks, individual Patients 1-5
[5] = 26 weeks, individual Patients 1-5 (Patient 5 reduced exposure)
[6] = single oral dose 2 mg, fasted (N = 6)
[7] = single oral dose 5 mg, fasted (N = 6)
[8] = single oral dose 15 mg, fasted (N = 6)
[9] = single oral dose 25 mg, fasted (N = 6)
[10] = single oral dose 50 mg, fasted (N = 6)
[11] = single oral dose 100 mg, fasted (N = 6)
[12] = single oral dose 150 mg, fasted (N = 5)

CC(C)(NC(=O)O[C@@H]1CN2CCC1CC2)c1csc(-c2ccc(F)cc2)n1 [Compound 2, (S)-quinuclidin-3-yl 2-(2-(4-fluorophenyl)thiazol-4-yl)propan-2-ylcarbamate]
GL-1 in CSF, percent change from baseline, Mean (n = 4) ([1]; 4 weeks): −64%
Lyso-GL1 in CSF, percent change from baseline, Mean (n = 4) ([1]; 4 weeks): −32%
GL-1 in CSF, percent change from baseline [1, 4]: −86% and −55% and −53% and −62% and −36%
Lyso-GL1 in CSF, percent change from baseline [1, 4]: −38% and −16% and −34% and −39% and −11%
GL-1 in CSF, percent change from baseline, Mean (n = 4) ([1]; 26 weeks): −75%
Lyso-GL1 in CSF, percent change from baseline, Mean (n = 4) ([1]; 26 weeks): −48%
GL-1 in CSF, percent change from baseline [1, 5]: −86% and −78% (2×) and −58% and +4%
Lyso-GL1 in CSF, percent change from baseline [1, 5]: −52% and −42% and −41% and −57% and +94%
CL/F, Geometric mean [2, 6]: 6.3 L/h
CL/F, Mean [2, 6]: 6.43 L/h
CL/F, Geometric mean [2, 7]: 5.8 L/h
CL/F, Mean [2, 7]: 5.86 L/h
CL/F, Geometric mean [2, 8]: 5.6 L/h
CL/F, Mean [2, 8]: 5.85 L/h
Cmax, Geometric mean [2, 8]: 50.7 ng/mL
CL/F, Geometric mean [2, 9]: 5.0 L/h
CL/F, Mean [2, 9]: 5.18 L/h
CL/F, Geometric mean [2, 10]: 5.5 L/h
CL/F, Mean [2, 10]: 5.75 L/h
CL/F, Geometric mean [2, 11]: 5.3 L/h
CL/F, Mean [2, 11]: 5.38 L/h
CL/F, Geometric mean [2, 12]: 5.6 L/h
CL/F, Mean [2, 12]: 5.80 L/h
Tmax [2, 9]: 5 h
Tmax [2, 11]: 3 h
Plasma GL-3 over time [3]: decreased with time
